According to patent publication US11970474B2, “Substituted benzodiazoles and use thereof in therapy” (THOMAS HELLEDAYS STIFTELSE FÖR MEDICINSK FORSKNING, priority 2018, dated 2024):

Key:
786-0 = experiment: Cell viability assay (resazurin); type: cell-based; conditions: Homo sapiens, 120 h, Cancer, Renal Cell Adenocarcinoma, five day incubation
Description: (§1) A dilution series of compound or vehicle are transferred to 96-well plates. Cells are seeded into the plate (500-10,000 cells/well) in suitable media and incubated for five days in 5% CO2 at 37° C. Thereafter, resazurin (diluted in suitable medium or PBS) are added to a final concentration 10 μg/ml resazurin at 37° C. for 2-4 hours before measuring the fluorescence (Ex544/Em590), essentially as described (Riss, Terry L. et al., “Cell Viability Assays.” In Assay Guidance Manual, ed. G. Sitta Sittampalam, et al. Bethesda (Md.): Eli Lilly & Company and the National Center for Advancing Translational Sciences (2004) http://www.ncbi.nlm.nih.gov/books/NBK144065/).
(§2) The compounds to be tested are nano-dispensed in duplicate in 11 concentrations, directly in 384-well cell plates, with a final DMSO concentration<1%. Cells are seeded in cell plates, pre-dispensed with compounds (200-2500 cells/well in 50 μl). After three or five days culture in 5% CO2, 37° C., resazurin diluted in PBS is added, 10 μl/well, to a final concentration of 10 μg/ml and cells are incubated 2-4 hours before measuring fluorescence (Ex544/Em590), as described (ibid.). Results obtained for selected example compounds described herein on cancer- and non-transformed cell lines are provided in the table below (Table 3) and summarized in FIG. 1. Where indicated, combination indexes was measured with CompuSyn software (www.compusyn.com) by the method of Chou-Talalay (Chou, Ting-Chao., Cancer Research, 70(2), 440-46 (2010)).

ACHN = experiment: Cell viability assay (resazurin); type: cell-based; conditions: Homo sapiens, 120 h, Cancer, Renal Cell Adenocarcinoma, five day incubation
Description: as §1, §2

HeLa = experiment: Cell viability assay (resazurin); type: cell-based; conditions: Homo sapiens, 120 h, Cancer, Cervical adenocarcinoma, five day incubation
Description: as §1, §2

MOLT4 = experiment: Cell viability assay (resazurin); type: cell-based; conditions: Homo sapiens, MOLT-4, 120 h, Cancer, Acute Lymphoblastic Leukemia, five day incubation
Description: as §1, §2

PC3 = experiment: Cell viability assay (resazurin); type: cell-based; conditions: Homo sapiens, PC-3, 120 h, Cancer, Prostate adenocarcinoma, five day incubation
Description: as §1, §2

SW480 = experiment: Cell viability assay (resazurin); type: cell-based; conditions: Homo sapiens, 120 h, Cancer, Colorectal Adenocarcinoma, five day incubation
Description: as §1, §2

MLE12 cells = experiment: Cell viability assay in MLE12 cells (resazurin); type: cell-based, mouse; conditions: Mus musculus, MLE12, 24 h, TNF-α 20 ng/ml, resazurin added after 24 hours culture
Outline: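 MLE12 cells (7500 cells/well) were seeded onto 11-point duplicate compound dose-responses, with TNF-α (final 20 ng/ml) added after 1 hour at 37° C. After 24 hours, resazurin was added for 6 hours and resorufin fluorescence read (ex544 nm/em595 nm). EC50 values were calculated by curve fitting.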

CCL2 = experiment: Mouse CCL2 assay in MLE12 cells; type: cell-based; conditions: Mus musculus, MLE12, 30 h, MLE12 cells; TNF-α 20 ng/ml; supernatant after 30 hours; HTRF; read-out: CCL2 (EC50)
Outline: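 CCL2 in supernatants was quantified by two-antibody HTRF FRET, read at 620 and 665 nm after overnight RT incubation, with IC50 derived from delta ratios. Cells were SV40-transformed mouse MLE12, treated with duplicate 6-point compound series for 1 h before 30 h TNF-α (20 ng/ml final) stimulation.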

EC50 (786-0)	EC50 (ACHN)	EC50 (HeLa)	EC50 (MOLT4)	EC50 (PC3)	EC50 (SW480)	EC50 (CCL2)	SMILES	IC50 (MLE12 cells)
15 µM	8.5 µM	16 µM	13 µM	19 µM	20 µM	17 µM	O=C(Nc1ccc(Cl)c(Cl)c1)N1CCC(n2c(=O)[nH]c3c(-c4ccc(CO)nc4)cccc32)CC1 [Example 28, N-(3,4-dichlorophenyl)-4-{4-[6-(hydroxymethyl)pyridin-3-yl]-2-oxo-2,3-dihydro-1H-1,3-benzodiazol-1-yl}piperidine-1-carboxamide]	7.18 µM
33 µM	2.8 µM	35 µM	17 µM	29 µM	30 µM	15.4 µM	Cc1cc(NC(=O)N2CCC(n3c(=O)[nH]c4c(Br)cccc43)CC2)ccc1I [Example 50, 4-(4-Bromo-2-oxo-2,3-dihydro-1H-1,3-benzodiazol-1-yl)-N-(4-iodo-3-methylphenyl)piperidine-1-carboxamide]	7.23 µM

SMILES	EC50 (786-0)	EC50 (ACHN)	EC50 (HeLa)	EC50 (MOLT4)	EC50 (PC3)	EC50 (SW480)	EC50 (CCL2)	IC50 (MLE12 cells)
O=C(Nc1ccc(I)cc1)N1CCC(n2c(=O)[nH]c3c(Br)cccc32)CC1 [Example 13, 4-(4-Bromo-2-oxo-2,3-dihydro-1H-1,3-benzodiazol-1-yl)-N-(4-iodophenyl)piperidine-1-carboxamide]	30 µM	2.3 µM	22 µM	15 µM	35 µM	33 µM	18.8 µM	7.67 µM
